ChEMBL document CHEMBL1122731, “Potential synthetic codeine substitutes: (-)-3-O-aryl-N-methylmorphinans” (J Med Chem, 1984)

What was measured:
Assay type in all cases: functional
Mus musculus [1] = assay: Compound was tested for analgesic activity by tail-flick test after peroral administration in mice; conditions: po
Mus musculus [2] = assay: Compound was tested for analgesic activity by writhing test after subcutaneous administration in mice; conditions: sc
Mus musculus [3] = assay: Compound was tested for analgesic activity by tail-flick test after subcutaneous administration in mice; conditions: sc
Mus musculus [4] = assay: Compound was tested for analgesic activity by writhing test after peroral administration in mice; conditions: po

Row | Structure (SMILES) | ED50 (Mus musculus [1]) | ED50 (Mus musculus [2]) | ED50 (Mus musculus [3]) | ED50 (Mus musculus [4])
1 | CN1CC[C@]23c4c5ccc(O)c4O[C@H]2[C@@H](O)C=C[C@H]3[C@H]1C5.CN1CC[C@]23c4c5ccc(O)c4O[C@H]2[C@@H](O)C=C[C@H]3[C@H]1C5.O=S(=O)(O)O | 31.2 mg/kg | 0.46 mg/kg |  | 
2 | CN1CC[C@]23CCCC[C@H]2[C@H]1Cc1ccc(Oc2cccc(F)c2)cc13.O.O=C(O)C(O)C(O)C(=O)O |  | 1.85 mg/kg | 71 mg/kg | 
3 | CN1CC[C@]23CCCC[C@H]2[C@H]1Cc1ccc(Oc2ccc(F)cc2)cc13 |  | 1 mg/kg | 37.3 mg/kg | 
4 | CN1CC[C@]23CCCC[C@H]2[C@H]1Cc1ccc(Oc2ccccn2)cc13.O=C(O)C(O)C(O)C(=O)O |  | 1.1 mg/kg | 10.1 mg/kg | 
5 | COc1cccc(Oc2ccc3c(c2)[C@@]24CCCC[C@H]2[C@@H](C3)N(C)CC4)c1 |  | 2.5 mg/kg | 39.7 mg/kg | 
6 | Cc1ccc(Oc2ccc3c(c2)[C@@]24CCCC[C@H]2[C@@H](C3)N(C)CC4)cc1.Cl |  | 23 mg/kg |  | 
7 | Br.COc1ccc2c(c1)[C@@]13CCCCC1[C@@H](C2)N(C)CC3 (some centres not stated) [LEVOMETHORPHAN HYDROBROMIDE] | 5.27 mg/kg | 0.64 mg/kg |  | 1.5 mg/kg
8 | COc1ccc2c3c1O[C@H]1[C@@H](O)C=C[C@H]4[C@@H](C2)N(C)CC[C@@]341.COc1ccc2c3c1O[C@H]1[C@@H](O)C=C[C@H]4[C@@H](C2)N(C)CC[C@@]341.O.O=P(O)(O)O.O=P(O)(O)O [CODEINE PHOSPHATE] | 119 mg/kg | 2.3 mg/kg |  | 24 mg/kg
9 | CN1CC[C@]23CCCC[C@H]2[C@H]1Cc1ccc(Oc2ccccc2)cc13.O=C(O)C(O)C(O)C(=O)O | 51.7 mg/kg | 1.25 mg/kg | 19.7 mg/kg | 2.3 mg/kg
10 | CCO.CN1CC[C@]23CCCC[C@H]2[C@H]1Cc1ccc(Oc2cccc(O)c2)cc13.O=C(O)C(O)C(O)C(=O)O |  | 9 mg/kg | 80.1 mg/kg | 
11 | CCO.CN1CC[C@]23CCCC[C@H]2[C@H]1Cc1ccc(Oc2ccccc2O)cc13.O=C(O)C(O)C(O)C(=O)O |  | 1.8 mg/kg | 11.4 mg/kg | 
12 | CN1CC[C@]23CCCC[C@H]2[C@H]1Cc1ccc(Oc2ccccc2F)cc13.O=C(O)C(=O)O |  | 3 mg/kg | 23.3 mg/kg | 
13 | COc1ccccc1Oc1ccc2c(c1)[C@@]13CCCC[C@H]1[C@@H](C2)N(C)CC3 |  | 0.49 mg/kg | 24.4 mg/kg | 
14 | CN1CC[C@]23CCCC[C@H]2[C@H]1Cc1ccc(Oc2ccc(O)cc2)cc13.Cl |  | 1.3 mg/kg | 6.69 mg/kg | 
15 | CN1CC[C@]23CCCC[C@H]2[C@H]1Cc1ccc(O)cc13.O=C(O)C(O)C(O)C(=O)O | 8.5 mg/kg | 0.11 mg/kg | 1.21 mg/kg | 1.4 mg/kg
16 | COc1ccc(Oc2ccc3c(c2)[C@@]24CCCC[C@H]2[C@@H](C3)N(C)CC4)cc1 |  | 2.1 mg/kg | 25 mg/kg | 
